Measurements from US9040547B2, “Pyrrolopyrimidine and purine derivatives” (PFIZER INC., priority 2011, dated 2015).

Columns and labels:
Type in all cases: cell-based
[1] = molecular target: T1, EGFR wildtype, endogenous (Homo sapiens, UniProt P00533); assay: pEGFR Y1068 ELISA assay, A549 cells; conditions: full serum media, stimulated 10 min with EGF (40 ng/mL), read-out: pEGFRY1068 ELISAA549 IC50;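 also: sandwich ELISA of phospho-EGFR Tyr1068 in cell lysates, cells exposed to compound for 2 h before EGF stimulation, 11-point threefold dilution series run in duplicate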
T1 construct: A549 (EGFR wildtype, endogenous); host or cells: A549
T1 sequence (P00533 25-1210): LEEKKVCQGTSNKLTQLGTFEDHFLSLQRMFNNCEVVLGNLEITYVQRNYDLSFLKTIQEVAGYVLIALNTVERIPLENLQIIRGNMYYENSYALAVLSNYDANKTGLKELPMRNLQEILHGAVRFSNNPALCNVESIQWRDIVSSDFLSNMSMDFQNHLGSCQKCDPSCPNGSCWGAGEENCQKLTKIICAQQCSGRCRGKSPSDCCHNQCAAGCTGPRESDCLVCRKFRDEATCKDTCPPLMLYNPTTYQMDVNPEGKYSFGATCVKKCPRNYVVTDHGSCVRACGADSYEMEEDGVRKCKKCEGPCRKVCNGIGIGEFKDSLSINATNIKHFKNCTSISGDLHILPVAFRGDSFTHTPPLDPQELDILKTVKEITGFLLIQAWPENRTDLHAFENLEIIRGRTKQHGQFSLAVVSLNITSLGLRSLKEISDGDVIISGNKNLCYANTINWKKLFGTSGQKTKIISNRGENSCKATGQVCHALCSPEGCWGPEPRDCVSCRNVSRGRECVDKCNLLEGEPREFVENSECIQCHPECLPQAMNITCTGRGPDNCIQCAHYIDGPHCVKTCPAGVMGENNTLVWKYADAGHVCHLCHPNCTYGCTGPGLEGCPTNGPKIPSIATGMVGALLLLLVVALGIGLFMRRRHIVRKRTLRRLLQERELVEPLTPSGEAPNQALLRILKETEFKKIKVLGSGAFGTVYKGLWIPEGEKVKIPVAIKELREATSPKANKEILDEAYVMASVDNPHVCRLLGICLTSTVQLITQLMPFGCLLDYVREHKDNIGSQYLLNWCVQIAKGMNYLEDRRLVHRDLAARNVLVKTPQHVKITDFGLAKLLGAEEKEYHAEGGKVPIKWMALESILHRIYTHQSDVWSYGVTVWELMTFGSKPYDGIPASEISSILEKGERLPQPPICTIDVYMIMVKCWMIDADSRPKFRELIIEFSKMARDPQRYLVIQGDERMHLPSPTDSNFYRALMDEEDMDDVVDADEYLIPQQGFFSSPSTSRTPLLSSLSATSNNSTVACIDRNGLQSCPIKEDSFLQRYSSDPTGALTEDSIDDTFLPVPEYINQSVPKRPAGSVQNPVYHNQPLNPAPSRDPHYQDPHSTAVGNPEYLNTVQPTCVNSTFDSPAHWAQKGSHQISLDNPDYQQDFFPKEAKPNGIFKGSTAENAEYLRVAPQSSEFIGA

[2] = molecular target: T2, EGFR L858R+T790M, endogenous (Homo sapiens, UniProt P00533, L858R/T790M); assay: pEGFR Y1068 ELISA assay, NCI-H1975 cells; conditions: value marked (H1975): NCI-H1975 cells, 2 hrs compound treatment; read-out: pEGFRY1068 ELISA3T3T790M—L858R IC50 (nM), (H1975);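 also: sandwich ELISA of endogenous phospho-EGFR (Tyr1068) in lysates of treated cells, 11-point 1:3 serial dilution tested in duplicate per plate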
T2 construct: NCI-H1975 (EGFR L858R+T790M, endogenous); host or cells: NCI-H1975
T2 sequence (P00533 25-1210 T790M/L858R): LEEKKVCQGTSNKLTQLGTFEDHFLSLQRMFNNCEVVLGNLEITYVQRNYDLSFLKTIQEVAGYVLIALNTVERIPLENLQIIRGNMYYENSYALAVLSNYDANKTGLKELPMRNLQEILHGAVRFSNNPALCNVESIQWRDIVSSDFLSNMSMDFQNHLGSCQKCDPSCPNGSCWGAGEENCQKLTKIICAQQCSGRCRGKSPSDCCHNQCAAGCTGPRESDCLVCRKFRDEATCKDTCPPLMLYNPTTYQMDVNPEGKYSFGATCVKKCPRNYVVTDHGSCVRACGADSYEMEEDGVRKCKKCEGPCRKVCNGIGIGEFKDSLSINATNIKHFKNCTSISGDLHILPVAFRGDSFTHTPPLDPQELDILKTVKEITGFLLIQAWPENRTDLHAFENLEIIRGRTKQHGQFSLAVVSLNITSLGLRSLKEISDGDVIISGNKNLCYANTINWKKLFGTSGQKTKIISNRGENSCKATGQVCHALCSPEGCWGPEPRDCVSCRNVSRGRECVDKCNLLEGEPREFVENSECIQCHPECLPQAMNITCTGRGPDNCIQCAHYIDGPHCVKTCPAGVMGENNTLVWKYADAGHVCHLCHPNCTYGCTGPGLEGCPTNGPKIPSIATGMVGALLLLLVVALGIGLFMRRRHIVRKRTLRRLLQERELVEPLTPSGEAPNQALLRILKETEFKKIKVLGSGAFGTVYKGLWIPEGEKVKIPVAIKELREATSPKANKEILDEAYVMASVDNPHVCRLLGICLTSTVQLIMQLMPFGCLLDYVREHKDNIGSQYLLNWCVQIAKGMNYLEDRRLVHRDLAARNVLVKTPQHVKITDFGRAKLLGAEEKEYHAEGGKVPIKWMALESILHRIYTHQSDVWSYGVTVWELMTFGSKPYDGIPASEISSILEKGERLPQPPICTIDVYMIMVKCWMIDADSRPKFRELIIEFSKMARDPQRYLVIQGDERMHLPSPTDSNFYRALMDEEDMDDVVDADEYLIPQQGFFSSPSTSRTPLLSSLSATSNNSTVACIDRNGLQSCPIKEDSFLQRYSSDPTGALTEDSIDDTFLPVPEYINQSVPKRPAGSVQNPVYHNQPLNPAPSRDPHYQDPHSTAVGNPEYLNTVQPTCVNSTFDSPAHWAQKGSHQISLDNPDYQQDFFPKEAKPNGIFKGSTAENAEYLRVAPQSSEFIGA

NIH3T3/EGFR L858R+T790M = assay: Cell proliferation assay (CellTiter-Glo), NIH3T3/EGFR L858R+T790M; conditions: Mus musculus, NIH3T3, 120 h, 3T3 cell line, three to five days of compound treatment, read-out: 3T3 L858R_T790M IC50
NCI-H3255 = assay: Cell proliferation assay (CellTiter-Glo), NCI-H3255; conditions: Homo sapiens, value marked (H3255), read-out: 3T3 L858R IC50, (H3255)
Method: (§1) Cell proliferation was measured using the CellTiter-Glo® Luminescent Cell Viability Assay. The assay involves the addition of a single reagent (CellTiter-Glo® Reagent) directly to cells cultured in serum-supplemented medium. The assay uses this one-step addition to induce cell lysis and generate a luminescent signal proportional to the amount of ATP present which is directly proportional to the number of metabolically active cells present in culture. The following cell lines were evaluated in this assay: NIH3T3/EGFR_L858R, NIH3T3/EGFR_E746-A750_deletion, NIH3T3/EGFR L858R+T790M, NIH3T3/EGFR_E746-A750_deletion+T790M, PC-9, PC9-DRH, NCI-H1975, and NCI-H3255. NIH/3T3 parental cells, NCI-H1975, and NCI-H3255 were purchased from the American Type Culture Collection (Manassas, Va.), and PC-9 cells were obtained from Japan. All cells were cultured according to recommendations. NIH/3T3 cells were grown in DMEM (Invitrogen, Carlsbad, Calif.) supplemented with 10% newborn calf serum (Invitrogen), and NIH3T3/EGFR mutant cells were grown in complete media with 5 μg/mL puromycin (Invitrogen). PC-9, NCI-H1975, and NCI-H3255 were grown in RPMI (Invitrogen, Carlsbad, Calif.) supplemented with 10% FBS (Sigma, St Louis, Mo.), and PC9-DRH cells were grown in complete media with 2 uM PF-00299804. Plasmids (pLPCX) with various EGFR constructs were made by GenScript (Piscataway, N.J.), and stable pools of NIH/3T3 cells expressing these constructs were made at Pfizer La Jolla. PC9-DRH cells were generated at Pfizer La Jolla by exposing cells to increasing concentrations of PF-00299804. Cells were plated in complete culture media (3000-5000 cells/well, 50 μl/well) on the bottom of white clear-bottom tissue culture treated microtiter plates (#3610, Corning Inc, Corning, N.Y.) and allowed to adhere overnight at 37° C., 5% CO2. The following day, compound dilution plates were prepared in 96 well clear V-bottom 0.5 mL polypropylene block plates (#3956, Corning, Inc). All cell lines were not evaluated for each compound. Each compound evaluated was prepared as a DMSO stock solution (10 mM). Compounds were tested in duplicate on each plate, with an 11-point serial dilution curve (1:3 dilution). Compound treatment (50 μl) was added from the compound dilution plate to the cell plate. The highest compound concentration was 1 or 10 μM (final), with a 0.3% final DMSO (#D-5879, Sigma, St Louis, Mo.) concentration. Plates were then incubated at 37° C., 5% CO2. After three to five days of compound treatment, CellTiter-Glo® Reagent (#G7573, Promega, Madison, Wis.) was prepared in one of two ways. If thawing a frozen aliquot of CellTiter-Glo® Reagent, the aliquot was thawed and equilibrated to room temperature prior to use while keeping it protected from light. Alternatively, new bottles of CellTiter-Glo® Buffer and CellTiter-Glo® Substrate were thawed and equilibrated to room temperature prior to use. CellTiter-Glo® Buffer (100 mL) was transferred into the amber bottle containing CellTiter-Glo® Substrate to reconstitute the lyophilized enzyme/substrate mixture, forming the CellTiter-Glo® Reagent. The reconstituted reagent was mixed by gently inverting the contents to obtain a homogeneous solution, and went into solution easily in less than one minute. Any unused reconstituted CellTiter-Glo® Reagent was immediately aliquoted and frozen at −20° C., protected from light. Cell plates were equilibrated at room temperature for approximately 30 minutes. An equivolume amount of CellTiter-Glo® Reagent (100 μL) was added to each well. Plates were mixed for two minutes on an orbital shaker to induce cell lysis, and then allowed to incubate at room temperature for 10 minutes to stabilize the luminescent signal. Luminescence was recorded using the PerkinElmer EnVision Excite Multilabel Reader used for endpoint reading for Luminescence detection (Waltham, Mass.). Data were analyzed using a four-parameter fit in Microsoft Excel. […]

PC-9 = assay: Cell proliferation assay (CellTiter-Glo), PC-9; conditions: Homo sapiens, value marked (PC9), read-out: 3T3 del IC50, (PC9)
Method: as §1

[3] = test system: NIH3T3/EGFR_E746-A750_deletion+T790M; assay: Cell proliferation assay (CellTiter-Glo), NIH3T3/EGFR_E746-A750_deletion+T790M; conditions: Mus musculus, NIH3T3, 120 h, 3T3 cell line, three to five days of compound treatment, read-out: 3T3 del_T790M IC50
Method: as §1

EGFR Del (PC9) = molecular target: T3, EGFR Del (PC9) (Homo sapiens, UniProt P00533, DEL746-750); assay: EGFR ELISA, PC9 Del cells; conditions: read-out: EGFR_ELISA9E PC9 Del IC50;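 also: cellular EGFR autophosphorylation at Tyr1068 quantified by sandwich ELISA of cell lysates after 2 h compound exposure at 37 °C, 11-point threefold dilution series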
T3 construct: endogenous in cells; host or cells: PC-9
T3 sequence (P00533 with tags, fused parts or gaps DEL746-750): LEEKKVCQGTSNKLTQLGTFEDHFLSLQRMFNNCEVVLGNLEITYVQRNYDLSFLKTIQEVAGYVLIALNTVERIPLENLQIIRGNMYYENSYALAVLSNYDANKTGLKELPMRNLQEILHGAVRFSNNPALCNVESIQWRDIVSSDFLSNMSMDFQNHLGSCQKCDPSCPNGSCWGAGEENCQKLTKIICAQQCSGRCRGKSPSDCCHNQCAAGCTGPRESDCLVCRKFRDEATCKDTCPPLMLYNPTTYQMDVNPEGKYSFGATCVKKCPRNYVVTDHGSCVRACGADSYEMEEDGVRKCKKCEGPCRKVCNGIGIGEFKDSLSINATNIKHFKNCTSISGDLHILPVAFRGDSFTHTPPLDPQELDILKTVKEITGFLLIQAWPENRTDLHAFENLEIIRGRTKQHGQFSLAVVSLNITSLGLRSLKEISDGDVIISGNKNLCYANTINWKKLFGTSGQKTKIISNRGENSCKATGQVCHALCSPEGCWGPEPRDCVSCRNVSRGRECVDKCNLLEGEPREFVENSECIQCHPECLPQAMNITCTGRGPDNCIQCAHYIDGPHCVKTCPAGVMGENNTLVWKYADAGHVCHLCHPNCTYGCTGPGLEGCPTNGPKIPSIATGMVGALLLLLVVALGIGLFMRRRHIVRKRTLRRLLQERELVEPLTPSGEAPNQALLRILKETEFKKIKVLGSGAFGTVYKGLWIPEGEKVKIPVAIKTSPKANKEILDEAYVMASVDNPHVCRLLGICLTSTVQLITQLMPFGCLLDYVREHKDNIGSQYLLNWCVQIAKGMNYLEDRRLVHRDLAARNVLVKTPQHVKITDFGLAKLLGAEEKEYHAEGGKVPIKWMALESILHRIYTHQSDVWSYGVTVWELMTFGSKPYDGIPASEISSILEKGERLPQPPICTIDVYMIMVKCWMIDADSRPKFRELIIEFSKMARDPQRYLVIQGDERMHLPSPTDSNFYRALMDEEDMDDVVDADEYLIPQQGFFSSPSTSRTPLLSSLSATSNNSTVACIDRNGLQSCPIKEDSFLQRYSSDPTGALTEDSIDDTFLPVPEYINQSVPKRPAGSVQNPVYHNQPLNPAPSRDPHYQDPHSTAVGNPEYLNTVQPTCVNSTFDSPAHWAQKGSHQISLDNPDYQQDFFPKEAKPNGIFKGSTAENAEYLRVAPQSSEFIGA

EGFR L858R, endogenous = molecular target: T4, EGFR L858R, endogenous (Homo sapiens, UniProt P00533, L858R); assay: pEGFR Y1068 ELISA assay, NCI-H3255 cells; conditions: value marked (H3255): NCI-H3255 cells, 2 hrs compound treatment; read-out: pEGFRY1068 ELISA3T3 L858R IC50 (nM), (H3255)
T4 construct: NCI-H3255 (EGFR L858R, endogenous); endogenous in cells; host or cells: NCI-H3255

EGFR L858R = EGFR L858R (Homo sapiens, UniProt P00533, L858R); assay: pEGFR Y1068 ELISA assay, NIH3T3/EGFR_L858R cells; conditions: 3T3 cell line, 2 hrs compound treatment; read-out: pEGFRY1068 ELISA3T3 L858R IC50;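 also: sandwich ELISA of phospho-EGFR Tyr1068 in lysates of stably transfected NIH/3T3 pools after 2 h compound exposure at 37 °C, 11-point threefold dilution series run in duplicate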
EGFR L858R+T790M = EGFR L858R+T790M (Homo sapiens, UniProt P00533, L858R/T790M); assay: pEGFR Y1068 ELISA assay, NIH3T3/EGFR_L858R+T790M cells; conditions: 3T3 cell line, 2 hrs compound treatment; read-out: pEGFRY1068 ELISA3T3T790M—L858R IC50;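 also: sandwich ELISA of EGFR phosphorylated at Tyr1068 in lysates of stably transfected NIH/3T3 cells, 11-point threefold dilution series run in duplicate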
Chain of EGFR L858R+T790M (P00533 25-1210 T790M/L858R): as the sequence (P00533 25-1210 T790M/L858R) above

EGFR E746-A750 deletion = EGFR E746-A750 deletion (Homo sapiens, UniProt P00533, DEL746-750); assay: pEGFR Y1068 ELISA assay, NIH3T3/EGFR_E746-A750 deletion cells; conditions: 3T3 Del cells, 2 hrs compound treatment; read-out: ELISA7E 3T3 Del IC50;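 also: sandwich ELISA on cell lysates detecting phospho-EGFR at Tyr1068, compounds run as 11-point threefold dilution series in duplicate, IC50 from inhibition of this phosphorylation signal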
NCI-H1975 = assay: Cell proliferation assay (CellTiter-Glo), NCI-H1975; conditions: Homo sapiens, value marked (H1975), read-out: 3T3 L858R_T790M IC50, (H1975)
Method: as §1

PC9-DRH = assay: Cell proliferation assay (CellTiter-Glo), PC9-DRH; conditions: value marked (PC9-DRH), read-out: 3T3 del_T790M IC50, (PC9-DRH)
Method: as §1

Row | IC50 [1] | IC50 [2] | IC50 (NCI-H3255) | IC50 (PC-9) | IC50 (EGFR Del (PC9)) | IC50 (EGFR L858R, endogenous) | IC50 (EGFR L858R) | IC50 (EGFR L858R+T790M) | IC50 (EGFR E746-A750 deletion) | IC50 (NCI-H1975) | IC50 (PC9-DRH) | Compound | IC50 (NIH3T3/EGFR L858R+T790M) | IC50 [3]
1 | 1650 nM | 6 nM | 100 to 1000 nM | 100 to 1000 nM | 42 nM | 33 nM | – | – | – | – | – | C=CC(=O)N(C)[C@H]1C[C@H](Oc2nc(Nc3cnn(C)c3)nc3[nH]cc(-c4ccccn4)c23)C1 [Example 89] | 10 to 100 nM | 10 to 100 nM
2 | > 10000 nM | – | 100 to 1000 nM | 100 to 1000 nM | – | – | 352 nM | 14 nM | 886 nM | > 1000 nM | – | C=CC(=O)N1C[C@H](COc2nc(Nc3ccn(C)n3)nc3[nH]cc(Cl)c23)[C@@H](OC)C1 [Example 111] | – | –
3 | 4290 nM | – | 10 to 100 nM | 100 to 1000 nM | 472 nM | 139 nM | – | 27 nM | – | – | 10 to 100 nM | C=CC(=O)N(C)[C@H]1C[C@H](Nc2nc(Nc3cn(C)nc3C)nc3[nH]cc(Cl)c23)C1 [Example 98] | 10 to 100 nM | –
4 | 2180 nM | 15 nM | 100 to 1000 nM | 100 to 1000 nM | 342 nM | 101 nM | – | – | – | – | 10 to 100 nM | C=CC(=O)N1CC[C@@H](Nc2nc(Nc3cnn(C)c3)nc3[nH]cc(Cl)c23)C1 [Example 96] | 10 to 100 nM | –
5 | 948 nM | 14 nM | 10 to 100 nM | > 1000 nM | 48 nM | 43 nM | – | – | – | – | 100 to 1000 nM | C=CC(=O)N1C[C@H](Nc2nc(Nc3cnn(C)c3)nc3[nH]cc(Cl)c23)[C@@H](C(F)(F)F)C1 [Example 87] | 100 to 1000 nM | –
6 | – | – | 10 to 100 nM | > 1000 nM | 154 nM | 61 nM | – | 191 nM | – | – | 100 to 1000 nM | C=CC(=O)N1C[C@H](Nc2nc(Nc3cnn(C)c3)nc3[nH]cc(Cl)c23)[C@@H](C(F)F)C1 [Example 85] | 10 to 100 nM | –
7 | – | – | 10 to 100 nM | – | – | – | – | – | – | – | – | C=CC(=O)N1C[C@H](COc2nc(Nc3cnn(C)c3)nc3[nH]cc(Cl)c23)[C@@H](F)C1 [Example 90] | – | –
8 | – | – | 100 to 1000 nM | 100 to 1000 nM | – | – | – | – | – | > 1000 nM | – | C=CC(=O)N1C[C@H](COc2nc(Nc3cnn(C)c3)nc3[nH]cc(Cl)c23)[C@@H](C(F)(F)F)C1 [Example 110] | – | –
9 | > 10000 nM | 25 nM | – | – | 891 nM | 273 nM | – | – | – | – | – | C=CC(=O)N(C)[C@H]1C[C@H](Oc2nc(Nc3cn(C)nc3C#N)nc3[nH]cc(Cl)c23)C1 [Example 80] | – | –
10 | 450 nM | 5 nM | 10 to 100 nM | 100 to 1000 nM | 87 nM | 31 nM | – | – | – | – | 10 to 100 nM | C=CC(=O)N1C[C@@H](F)[C@H](Nc2nc(Nc3cnn(C)c3)nc3[nH]cc(Cl)c23)C1 (single isomer, unassigned) [Example 83] | 10 to 100 nM | –
11 | > 10000 nM | 153 nM | – | – | 4250 nM | 101 nM | – | – | – | – | – | C=CC(=O)N1C[C@H](COc2nc(Nc3cnn(CC(C)O)c3)nc3[nH]cc(Cl)c23)[C@@H](OC)C1 (single isomer, unassigned) [Example 100] | – | –
12 | – | 24 nM | – | – | 328 nM | 107 nM | – | – | – | – | – | C=CC(=O)N(C)[C@H]1C[C@H](Oc2nc(Nc3cnn(CC#N)c3)nc3[nH]cc(Cl)c23)C1 [Example 116] | 10 to 100 nM | –
13 | > 10000 nM | 689 nM | – | – | 2780 nM | 782 nM | – | – | – | – | – | C=CC(=O)N[C@H]1C[C@H](Oc2nc(Nc3cnn(C)c3)nc3[nH]cc(-c4ccccn4)c23)C1 [Example 12, N-[trans-3-({2-[(1-methyl-1H-pyrazol-4-yl)amino]-5-(pyridin-2-yl)-7H-pyrrolo[2,3-d]pyrimidin-4-yl}oxy)cyclobutyl]prop-2-enamide] | – | –
14 | > 10000 nM | 638 nM | – | – | > 10000 nM | 973 nM | – | – | – | – | – | C=CC(=O)N1C[C@H](Nc2nc(Nc3cnn(C)c3)nc3[nH]cc(Cl)c23)[C@H](n2ccnn2)C1 [Example 82] | – | –
15 | 3440 nM | – | > 1000 nM | > 1000 nM | 812 nM | – | 482 nM | 377 nM | – | – | 100 to 1000 nM | C=CC(=O)N1C[C@@H]2CN(c3nc(Nc4cn(C)nc4OC)nc4[nH]cc(Cl)c34)C[C@@H]2C1 [Example 99] | 100 to 1000 nM | –
16 | > 10000 nM | 1570 nM | – | – | 8570 nM | 2440 nM | – | – | – | – | – | C=CC(=O)N(C)[C@H]1C[C@H](Oc2nc(Nc3cnn(C)c3)nc3[nH]cc(-c4cnn(C)c4)c23)C1 [Example 95] | – | –
17 | – | 89 nM | 100 to 1000 nM | 100 to 1000 nM | 91 nM | 48 nM | – | – | – | – | 100 to 1000 nM | C=CC(=O)N(C)[C@H]1C[C@H](Oc2nc(Nc3cnn(C)c3)nc3[nH]cc(-c4cccnc4)c23)C1 [Example 13, N-methyl-N-[trans-3-({2-[(1-methyl-1H-pyrazol-4-yl)amino]-5-(pyridin-3-yl)-7H-pyrrolo[2,3-d]pyrimidin-4-yl}oxy)cyclobutyl]prop-2-enamide] | 100 to 1000 nM | –
